Values of other authors, collected in US11471478B2, “Use of cyclodextrins in diseases and disorders involving phospholipid dysregulation” (priority 2017, dated 2022).
Marks after values point to notes of the source that are not given here.

Tests used:
[1] = tested on: BBB; conditions: cited from earlier work
[2] = i.v.; cited from earlier work
[3] = tested on: whole blood; conditions: cited from earlier work
[4] = tested on: rats; conditions: rat, in vivo, iv; cited from earlier work
[5] = tested on: mice/rats; conditions: in vivo; cited from earlier work
[6] = tested on: keratinocytes; conditions: cited from earlier work
[7] = tested on: fibroblasts of lysosomal storage diseases; conditions: about 6 mM α-CD, about 8 mM HP-β-CD; cited from earlier work
[8] = tested on: HeLa cells transfected with α-synuclein; conditions: 20 mM for 1 hr; cited from earlier work
[9] = biological target: T1, breast cancer resistance protein (BCRP) (Homo sapiens, UniProt Q9UNQ0); conditions: cited from earlier work
T1 sequence (Q9UNQ0 1-655): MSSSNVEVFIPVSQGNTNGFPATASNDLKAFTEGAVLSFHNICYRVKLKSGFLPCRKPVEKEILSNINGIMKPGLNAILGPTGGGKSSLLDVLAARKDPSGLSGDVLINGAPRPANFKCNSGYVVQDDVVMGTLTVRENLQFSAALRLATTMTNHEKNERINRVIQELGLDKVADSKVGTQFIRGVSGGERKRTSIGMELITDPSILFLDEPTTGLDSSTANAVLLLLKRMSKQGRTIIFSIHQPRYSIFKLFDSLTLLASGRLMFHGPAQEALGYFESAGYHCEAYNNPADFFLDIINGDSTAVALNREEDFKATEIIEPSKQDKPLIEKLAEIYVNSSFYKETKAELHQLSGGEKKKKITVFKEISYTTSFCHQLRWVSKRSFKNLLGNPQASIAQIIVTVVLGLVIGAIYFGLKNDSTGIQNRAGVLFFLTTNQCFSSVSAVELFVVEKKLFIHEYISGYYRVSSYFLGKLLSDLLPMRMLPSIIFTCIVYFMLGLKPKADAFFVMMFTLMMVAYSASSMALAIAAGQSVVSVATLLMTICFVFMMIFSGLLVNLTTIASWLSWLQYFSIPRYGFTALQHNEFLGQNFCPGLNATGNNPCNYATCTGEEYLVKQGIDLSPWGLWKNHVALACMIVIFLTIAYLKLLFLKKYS

Compound: CN1CCCC1c1cccnc1 (centres unmarked) [nicotine]
- transported through the BBB ([1]; after 2 h of incubation, in vitro): 96%

Compound: OC[C@H]1O[C@@H]2O[C@H]3[C@H](O)[C@@H](O)[C@@H](O[C@H]4[C@H](O)[C@@H](O)[C@@H](O[C@H]5[C@H](O)[C@@H](O)[C@@H](O[C@H]6[C@H](O)[C@@H](O)[C@@H](O[C@H]7[C@H](O)[C@@H](O)[C@@H](O[C@H]8[C@H](O)[C@@H](O)[C@@H](O[C@H]1[C@H](O)[C@H]2O)O[C@@H]8CO)O[C@@H]7CO)O[C@@H]6CO)O[C@@H]5CO)O[C@@H]4CO)O[C@@H]3CO [β-CD, beta-cyclodextrin, reference compound]
- half-life (t1/2) after i.v. in rats [2]: 20 min
- whole blood TD50 [3]: 3.6 mM/L
- i.v. toxicity, 1 g/kg daily [4]: all died ≤ 4 d
- LD50 i.v./i.p. in mice/rats [5]: 0.8/1.0 ^4) g/kg
- Transport across BBB ([1]; 2 h, 1 mM): 26.7 (1 mM) %
- toxicity on the BBB model [1]: similarly safe
- caspase-dependent apoptotic cell death [6]: induces caspase-dependent apoptotic cell death

Compound: methyl-β-cyclodextrin [M-β-CD]
- reduction of lysosomal storage [7]: most effective cyclodextrin
- co-location of α-synuclein with the cell membrane [8]: dramatically reduced
- decrease in activity of BCRP [9]: 40%
